Series [1] has as its system murine c-kit+ hematopoietic stem/progenitor cells (HSPC). In words: Colony-forming assay with hematopoietic stem/progenitor cells. In kind it is cell-based, mouse. The conditions noted are these: even at 250 nM.
In the next series the test system is Jurkat leukemia cells. As to the kind of experiment: Antiproliferation assay. In kind it is cell-based, human. The conditions noted are these: for inhibition at 50 µM / EC50: Jurkat; for inhibition at 50 µM: read-out: % inhibition at 50 µM, Jurkat; for EC50: read-out: Antiproliferative activity EC50, Jurkat; for Effect on growth of Jurkat cells: at 50 µM.
The test system of the next series is MV4-11 cells. In words: Antiproliferation assay. In kind it is cell-based, human.
Series [2] concerns MCF-7 (breast cancer) cells. In words: Antiproliferation assay. In kind it is cell-based, human.
Another series relates to NB4 cells. As to the kind of experiment: Antiproliferation assay. It is filed as cell-based, human.
Another series deals with SKNO-1 cells. As to the kind of experiment: Antiproliferation assay. In kind it is cell-based, human.
The subject of series [3] is normal fibroblast WI-38 cells. In words: Antiproliferation assay. In kind it is cell-based, human.
A further series deals with myeloid leukemia cells. The settings on record: short course (3-7 days), high doses (20-30 mg/kg/day); ref [54]; cited from earlier work.
The conditions of series [4]: ref [44], [45]; cited from earlier work.
The conditions of series [5]: i.p. 100 mg/kg/day, 10 injections over 14 days.
Series [6] concerns Kasumi-1 cells. As to the kind of experiment: Antiproliferation assay. In kind it is cell-based, human. The settings on record: read-out: Antiproliferative activity EC50, Kasumi-1.
Series [7] concerns Kasumi-1 and SKNO-1 cells. As to the kind of experiment: Antiproliferation assay, R-E leukemia cells. The settings on record: more active than Dex. In kind it is cell-based, human.
For series [8], the system named is SKNO-1 leukemia. As to the kind of experiment: Subcutaneous xenograft mouse model of SKNO-1 leukemia. In kind it is in vivo. The settings on record: i.p. 10 and 20 mg/kg/day, 10 injections in 14 days, NOD-SCID mice.
In series [9] the test system is Kasumi-1 cells. As to the kind of experiment: Combination treatment of Kasumi-1 cells, combination index. In kind it is cell-based, human. The settings on record: Dex in combination with cytarabine, CI < 1 synergism, listed as Dex.
The subject of series [10] is SKNO-1 leukemia. The settings on record: 15 mg/kg/day i.p. injection for 4 days, ref [37], cited from earlier work.
Setting [11] is: Homo sapiens, MV4-11, read-out: Antiproliferative activity EC50, MV4-11.
Where [12] appears, read: Homo sapiens, MCF7, read-out: Antiproliferative activity EC50, MCF-7.
Where [13] appears, read: Homo sapiens, NB-4, read-out: Antiproliferative activity EC50, NB4.
[14] abbreviates: Homo sapiens, SKNO-1, read-out: Antiproliferative activity EC50, SKNO-1.
[15] abbreviates: Homo sapiens, WI-38, read-out: Antiproliferative activity EC50, WI-38.

Where “and” joins values, the source holds several entries; their conditions need not be identical. Identical values can stand only once. Like-named read-outs stand apart in the source and are kept apart here.

For `C[C@H]1C[C@H]2[C@@H]3CCC4=CC(=O)C=C[C@]4(C)[C@@]3(F)[C@@H](O)C[C@]2(C)[C@@]1(O)C(=O)CO` [Betamethasone, betamethasone], the “Effect on colony-forming ability of murine HSPC” value in series [1] is listed as “did not significantly affect”. The inhibition at 50 µM with Jurkat leukemia cells (Homo sapiens) was determined as 6.9%. Also, the EC50 with Jurkat leukemia cells (Homo sapiens) was above 50 µM; with MV4-11 cells (setting [11]), above 50 µM; in series [2] (setting [12]) it was above 50 µM; in the series with NB4 cells (setting [13]), above 50 µM; with SKNO-1 cells (setting [14]), 0.059 µM; in [3] (setting [15]), above 50 µM. In the series on Jurkat leukemia cells, the “Effect on growth of Jurkat cells” value was “did not affect growth”.
As to `C[C@]12CCC(=O)C=C1CC[C@@H]1[C@@H]2[C@@H](O)C[C@@]2(C)[C@H]1CC[C@]2(O)C(=O)CO` [Hydrocortisone, hydrocortisone], the EC50 was above 50 µM in the series on Jurkat leukemia cells (Homo sapiens) and 0.41 µM with SKNO-1 cells (setting [14]).
Take `CN(C)/N=N/c1[nH]cnc1C(N)=O` [Dacarbazine, dacarbazine]: the EC50 in the series with Jurkat leukemia cells (Homo sapiens) amounted to 15.2 µM.
Turning to `C[C@H]1C[C@@H]2[C@H]([C@@H](O)C[C@@]3(C)[C@H]2CC[C@]3(O)C(=O)CO)[C@@]2(C)C=CC(=O)C=C12` [methylprednisolone], in the series on myeloid leukemia cells, the “Differentiation of myeloid leukemia cells in children with AML” value was “induce differentiation of myeloid leukemia cells”.
`C=CCNC1=C2C[C@@H](C)C[C@H](OC)[C@H](O)[C@@H](C)/C=C(\C)[C@H](OC(N)=O)[C@@H](OC)/C=C\C=C(/C)C(=O)NC(=CC1=O)C2=O` [Tanespimycin, tanespimycin]: the concentration giving a half-maximal response (EC50) with Jurkat leukemia cells (Homo sapiens) is around 50 µM; in the series with MV4-11 cells (setting [11]), 0.52 µM; in series [2] (setting [12]), above 50 µM; in the series on NB4 cells (setting [13]), 0.42 µM; in series [3] (setting [15]) it was above 50 µM.
With `C[C@]12C=CC(=O)C=C1CC[C@@H]1[C@@H]2[C@@H](O)C[C@@]2(C)[C@H]1CC[C@]2(O)C(=O)CO` [Prednisolone, prednisolone], the EC50 with Jurkat leukemia cells (Homo sapiens) is above 50 µM; with SKNO-1 cells (setting [14]), 0.15 µM.
For `C[C@@H]1C[C@H]2[C@@H]3CCC4=CC(=O)C=C[C@]4(C)[C@@]3(F)[C@@H](O)C[C@]2(C)[C@@]1(O)C(=O)COP(=O)(O)O` [Dex-P, dexamethasone-21-phosphate], in series [1], the “Effect on colony-forming ability of murine HSPC” value is given as “did not significantly affect”. The concentration giving a half-maximal response (EC50) in the series on Jurkat leukemia cells was above 50 µM; in the series on MV4-11 cells (read-out: Antiproliferative activity EC50, MV4-11, MV4-11), above 50 µM; in series [2] (read-out: Antiproliferative activity EC50, MCF-7, MCF-7) it was above 50 µM; in the series on NB4 cells (read-out: Antiproliferative activity EC50, NB4, NB4), above 50 µM; with SKNO-1 cells (read-out: Antiproliferative activity EC50, SKNO-1, SKNO-1), 0.017 µM; with Kasumi-1 cells [6] it was 0.009 µM. For the same compound, in [3] (read-out: Antiproliferative activity EC50, WI-38, WI-38), the EC50 is above 50 µM. In addition, the t1/2 in humans in series [4] is recorded as 4.7 h. The Toxicity to mice result in series [5] is “without overt toxicities”. In series [7], the “Activity compared to parent compound Dex (fold more active)” value is ~ 2 fold. The “Survival in SKNO-1 xenograft” value with SKNO-1 leukemia [8] was “prolonged survivals”. In addition, in the series on SKNO-1 leukemia [8], the “Tumor growth in SKNO-1 xenograft” value is reported as “significant tumor growth inhibition”.
Regarding `COc1ccc2cc(CCC(C)=O)ccc2c1` [Nabumetone], in the series on Jurkat leukemia cells (Homo sapiens), the inhibition at 50 µM was -3.5% and the concentration for a half-maximal effect (EC50) was above 50 µM. Besides, in the series on Jurkat leukemia cells, the “Effect on growth of Jurkat cells” value is “inactive”. Besides, the 50% effective concentration (EC50) in the series with Kasumi-1 cells [6] was 18.5 µM.
As for `CC=CC(=O)N(CC)c1ccccc1C` (mixture of isomers) [Crotamiton, crotamiton], in the series with Jurkat leukemia cells (Homo sapiens), the inhibition at 50 µM amounted to 11.2% and the concentration for a half-maximal effect (EC50) is above 50 µM.
In the case of `CC(=O)c1ccc2c(c1)N(CCCN(C)C)c1ccccc1S2` [Acepromazine, acepromazine], in the series with Jurkat leukemia cells (Homo sapiens), the inhibition at 50 µM turned out to be 21% and the EC50 was above 50 µM.
With `COc1cc2ccc(=O)oc2cc1O` [Scopoletin, scopoletin], in the series on Jurkat leukemia cells (Homo sapiens), the inhibition at 50 µM came out at 29.4% and the EC50 was above 50 µM.
`C[C@@H]1C[C@H]2[C@@H]3CCC4=CC(=O)C=C[C@]4(C)[C@@]3(F)[C@@H](O)C[C@]2(C)[C@@]1(O)C(=O)CO` [Dexamethasone, dexamethasone]: the EC50 was above 50 µM in the series on Jurkat leukemia cells (Homo sapiens); above 50 µM with MV4-11 cells (setting [11]); above 50 µM in series [2] (setting [12]); above 50 µM in the series with NB4 cells (setting [13]); 0.029 µM in the series on SKNO-1 cells (setting [14]); above 50 µM in series [3] (setting [15]). Besides, the “Combination index (CI)” value with Kasumi-1 cells [9] was 0.13-0.75 and 0.13 to 0.75. Further, the “In vivo activity (tumor burden) in mouse model of SKNO-1 leukemia” value with SKNO-1 leukemia [10] is on record as “did not reduce in vivo tumor burden”; in the series on SKNO-1 leukemia [10] (listed as Dex), “no in vivo activity”.
`CCCNCC(O)COc1ccccc1C(=O)CCc1ccccc1` (centres unmarked) [Propafenone, propafenone]: in the series on Jurkat leukemia cells (Homo sapiens), the inhibition at 50 µM came out at 2.5% and the EC50 was above 50 µM.
`CO[C@H]1/C=C\C=C(/C)C(=O)NC2=CC(=O)C(NCCN(C)C)=C(C[C@@H](C)C[C@H](OC)[C@H](O)[C@@H](C)/C=C(\C)[C@@H]1OC(N)=O)C2=O` [Alvespimycin, alvespimycin]: the EC50 in the series with Jurkat leukemia cells (Homo sapiens) is 1.6 µM; in the series on MV4-11 cells (setting [11]), 0.09 µM; in series [2] (setting [12]), 5.2 µM; with NB4 cells (setting [13]) it was 0.055 µM; in series [3] (setting [15]) it was 27 µM.
Take `Cc1c(Nc2ncccc2C(=O)O)cccc1C(F)(F)F` [Fluninxin]: the “Effect on growth of Jurkat cells” value in the series with Jurkat leukemia cells is “inactive”. The EC50 in the series on Jurkat leukemia cells was around 50 µM; in the series on Kasumi-1 cells [6], 14.7 µM.

The inhibition is the relative decrease from the control value, in per cent. For orientation: EC50 means the concentration at which the effect is half-maximal.

Source of the values: publication PMC5928880 (Theranostics, 2018).
